Test results published in PubChem BioAssay AID248 (DTP/NCI, 2004).
“And” between values parts separate entries of the source, which are not always exact repeats. Equal values may be shown once. Inconclusive results and toxic doses are left out. Rule as the data show it: active = T/C of 150% or more; inactive = T/C below 125%.

Tested on: L1210 leukemia ip in BDF1 mice, survival T/C
Assay: NCI In Vivo Anticancer Drug Screen. Data for tumor model L1210 Leukemia (intraperitoneal) in B6D2F1 (BDF1) mice
Conditions: endpoint: mean survival time, higher = longer survival
Outline: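 Ratio derived from survival: compound-dosed mice over vehicle-dosed mice, all bearing a transplantable tumor.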

[1] = dose: 100.0 mg/kg/injection, schedule: Q01DX001 (ip), vehicle: saline
[2] = dose: 200.0 mg/kg/injection, schedule: Q01DX001 (ip), vehicle: saline
[3] = dose: 400.0 mg/kg/injection, schedule: Q01DX001 (ip), vehicle: saline
[4] = dose: 50.0 mg/kg/injection, schedule: Q01DX009 (ip), vehicle: saline
[5] = dose: 100.0 mg/kg/injection, schedule: Q04DX003 (ip), vehicle: saline
[6] = dose: 200.0 mg/kg/injection, schedule: Q04DX003 (ip), vehicle: saline
[7] = dose: 100.0 mg/kg/injection, schedule: Q01DX009 (ip), vehicle: saline with Tween-80
[8] = dose: 200.0 mg/kg/injection, schedule: Q01DX009 (ip), vehicle: saline with Tween-80
[9] = dose: 100.0 mg/kg/injection, schedule: Q01DX009 (ip), vehicle: Klucel (hydroxypropylcellulose) (HPC)
[10] = dose: 100.0 mg/kg/injection, schedule: Q04DX003 (ip), vehicle: Klucel (hydroxypropylcellulose) (HPC)
[11] = dose: 200.0 mg/kg/injection, schedule: Q04DX003 (ip), vehicle: Klucel (hydroxypropylcellulose) (HPC)
[12] = dose: 400.0 mg/kg/injection, schedule: Q04DX003 (ip), vehicle: Klucel (hydroxypropylcellulose) (HPC)
[13] = dose: 50.0 mg/kg/injection, schedule: Q01DX001 (ip), vehicle: carboxymethylcellulose (CMC)
[14] = dose: 100.0 mg/kg/injection, schedule: Q01DX001 (ip), vehicle: carboxymethylcellulose (CMC)
[15] = dose: 200.0 mg/kg/injection, schedule: Q01DX001 (ip), vehicle: carboxymethylcellulose (CMC)
[16] = dose: 400.0 mg/kg/injection, schedule: Q01DX001 (ip), vehicle: carboxymethylcellulose (CMC)
[17] = dose: 100.0 mg/kg/injection, schedule: Q01DX001 (ip), vehicle: other
[18] = dose: 200.0 mg/kg/injection, schedule: Q01DX001 (ip), vehicle: other
[19] = dose: 400.0 mg/kg/injection, schedule: Q01DX001 (ip), vehicle: other
[20] = dose: 100.0 mg/kg/injection, schedule: Q01DX009 (ip), vehicle: saline
[21] = dose: 200.0 mg/kg/injection, schedule: Q01DX009 (ip), vehicle: saline
[22] = dose: 25.0 mg/kg/injection, schedule: Q01DX009 (ip), vehicle: Klucel (hydroxypropylcellulose) (HPC)
[23] = dose: 100.0 mg/kg/injection, schedule: Q04DX003 (ip), vehicle: saline with Tween-80
[24] = dose: 200.0 mg/kg/injection, schedule: Q04DX003 (ip), vehicle: saline with Tween-80
[25] = dose: 400.0 mg/kg/injection, schedule: Q04DX003 (ip), vehicle: saline with Tween-80
[26] = dose: 25.0 mg/kg/injection, schedule: Q01DX001 (ip), vehicle: Klucel (hydroxypropylcellulose) (HPC)
[27] = dose: 50.0 mg/kg/injection, schedule: Q01DX001 (ip), vehicle: Klucel (hydroxypropylcellulose) (HPC)

Measured: T/C

O=C(OCCCl)c1ccco1
inactive: [1] 102 % of control | [2] 102 % of control | [3] 107 % of control

FCc1nc2nc(Cl)c(Cl)nc2[nH]1
inactive: dose: 12.5 mg/kg/injection, schedule: Q01DX009 (ip), vehicle: saline 100 % of control | dose: 25.0 mg/kg/injection, schedule: Q01DX009 (ip), vehicle: saline 96 % of control | [4] 88 % of control | [5] 97 % of control | [6] 97 % of control

CCOC(=O)C(Cc1ccccc1Cl)(NC(C)=O)C(=O)OCC
inactive: [7] 93 % of control | [8] 100 % of control | dose: 400.0 mg/kg/injection, schedule: Q01DX009 (ip), vehicle: saline with Tween-80 104 % of control

Cn1c([N+](=O)[O-])cnc1/C=[N+](/C)[O-]
inactive: dose: 100.0 mg/kg/injection, schedule: Q04DX002 (ip), vehicle: saline 107 % of control | dose: 200.0 mg/kg/injection, schedule: Q04DX002 (ip), vehicle: saline 100 % of control | dose: 400.0 mg/kg/injection, schedule: Q04DX002 (ip), vehicle: saline 107 % of control

O=[N+]([O-])c1c(Br)ncn1Cc1ccccc1
inactive: dose: 100.0 mg/kg/injection, schedule: Q04DX003 (ip), vehicle: acetone 99 % of control | dose: 200.0 mg/kg/injection, schedule: Q04DX003 (ip), vehicle: acetone 96 % of control

C[N+]1=CN(c2ccc(Cl)cc2)Cc2cc(Cl)ccc21
inactive: [9] 95 % of control | [10] 105 % of control | dose: 200.0 mg/kg/injection, schedule: Q01DX009 (ip), vehicle: Klucel (hydroxypropylcellulose) (HPC) 106 % of control | [11] 91 % of control | dose: 400.0 mg/kg/injection, schedule: Q01DX009 (ip), vehicle: Klucel (hydroxypropylcellulose) (HPC) 107 % of control | [12] 93 % of control

CCCCCCc1cc(OC(=O)c2ccccc2)ccc1OC(=O)c1ccccc1
inactive: [13] 94 % of control | [14] 97 % of control | [15] 89 % of control | [16] 97 % of control

O=C(O)c1cc(-c2ccc(N(CCCl)CCCl)cc2)nc2ccccc12
inactive: [17] 104 % of control | [18] 104 % of control | [19] 96 % of control

Cc1ccccc1OCC(=O)O
inactive: dose: 50.0 mg/kg/injection, schedule: Q01DX009 (ip), vehicle: saline with Tween-80 107 % of control | [4] 107 % of control | [7] 98 % of control | [20] 98 % of control | dose: 100.0 mg/kg/injection, schedule: Q04DX003 (ip), vehicle: gum acacia 98 % of control | [8] 98 % of control | [21] 98 % of control | dose: 200.0 mg/kg/injection, schedule: Q04DX003 (ip), vehicle: gum acacia 94 % of control | dose: 400.0 mg/kg/injection, schedule: Q04DX003 (ip), vehicle: gum acacia 93 % of control

NNC(=O)c1ccc(Br)cc1
inactive: [22] 93 % of control | dose: 50.0 mg/kg/injection, schedule: Q01DX009 (ip), vehicle: Klucel (hydroxypropylcellulose) (HPC) 96 % of control | [9] 104 % of control | [10] 94 % of control | [11] 103 % of control | [12] 106 % of control

CCC(CC)c1ccc2ccccc2c1
inactive: [1] 100 % of control | [2] 98 % of control | [3] 101 % of control

[CH3][Sb]([CH3])([CH3])([O]C(=O)CBr)[O]C(=O)CBr
inactive: dose: 12.5 mg/kg/injection, schedule: Q04DX003 (ip), vehicle: saline with Tween-80 102 % of control | dose: 25.0 mg/kg/injection, schedule: Q04DX003 (ip), vehicle: saline with Tween-80 87 % of control | dose: 50.0 mg/kg/injection, schedule: Q04DX003 (ip), vehicle: saline with Tween-80 91 % of control

CNC(=S)N/N=C1/C(=N\NC(=S)NC)C(=O)OC1C(O)CO (stereo unspecified)
inactive: [17] 93 % of control | [7] 98 % of control | [23] 100 % of control | [18] 95 % of control | [8] 112 % of control | [24] 89 % of control | [19] 90 % of control | [25] 91 % of control

CCc1nc(=S)c2ncn(CC)c2[nH]1
inactive: [23] 106 % of control | [24] 96 % of control | [25] 90 % of control

O=C(O)/C=C/c1cc(Br)sc1Br
inactive: [1] 96 % of control | [2] 107 % of control | [3] 88 % of control

NC(=O)c1nnc(-c2ccc(Cl)cc2)[nH]c1=O
inactive: [23] 98 % of control | [24] 98 % of control | [25] 98 % of control

CC(=O)OC1CCSc2ccccc21 (stereo unspecified)
inactive: [13] 95 % of control | [14] 93 % of control | [15] 104 % of control | [16] 90 % of control

C[N+](C)(CC(=O)Nc1ccc(Oc2ccc(Cl)cc2)cc1)Cc1ccccc1
inactive: dose: 12.5 mg/kg/injection, schedule: Q01DX001 (ip), vehicle: Klucel (hydroxypropylcellulose) (HPC) 104 % of control | dose: 12.5 mg/kg/injection, schedule: Q01DX009 (ip), vehicle: Klucel (hydroxypropylcellulose) (HPC) 91 % of control | [26] 101 % of control | [22] 88 % of control | [27] 93 % of control

CCCCCCCCCCCCSC(=O)CCC(=O)O
inactive: dose: 50.0 mg/kg/injection, schedule: Q01DX009 (ip), vehicle: other 102 % of control | dose: 100.0 mg/kg/injection, schedule: Q01DX009 (ip), vehicle: other 108 % of control | [10] 97 % of control | dose: 200.0 mg/kg/injection, schedule: Q01DX009 (ip), vehicle: other 97 % of control | [11] 103 % of control

NC(=O)N1C(=O)C2C3C=CC(O3)C2C1=O (stereo unspecified)
inactive: [20] 96 % of control | [5] 98 % of control | [21] 95 % of control | [6] 101 % of control | dose: 400.0 mg/kg/injection, schedule: Q04DX003 (ip), vehicle: saline 101 % of control

COc1ccc(C(=O)c2ccccc2)c(OC(=O)Nc2cc([N+](=O)[O-])ccc2F)c1
inactive: [10] 95 % of control | [11] 101 % of control | [12] 98 % of control

CC(C)CCNC(=O)NS(=O)(=O)c1ccc(Cl)cc1
inactive: [23] 107 % of control | [24] 97 % of control | [25] 100 % of control

O=C1OC2(Cc3ccccc31)c1ccccc1-c1ccccc12
inactive: dose: 25.0 mg/kg/injection, schedule: Q04DX003 (ip), vehicle: Klucel (hydroxypropylcellulose) (HPC) 91 % of control | dose: 50.0 mg/kg/injection, schedule: Q04DX003 (ip), vehicle: Klucel (hydroxypropylcellulose) (HPC) 90 % of control | [10] 88 % of control | [11] 88 % of control | [12] 90 % of control

C=C1[C@@H](C)[C@H]2[C@H](Cc3ccccc3)NC(=O)[C@]23OC(=O)/C=C/[C@H](O)CCC[C@@H](C)C/C=C/[C@H]3[C@@H]1O
inactive: dose: 4.0 mg/kg/injection, schedule: Q04DX002 (ip), vehicle: saline 112 % of control | dose: 8.0 mg/kg/injection, schedule: Q04DX002 (ip), vehicle: saline 98 % of control | dose: 16.0 mg/kg/injection, schedule: Q04DX002 (ip), vehicle: saline 109 % of control | dose: 32.0 mg/kg/injection, schedule: Q04DX002 (ip), vehicle: saline 91 % of control

O=C1c2ccccc2C(=O)N1c1ccccc1-c1ccccc1
inactive: [26] 95 % of control | [27] 103 % of control | dose: 100.0 mg/kg/injection, schedule: Q01DX001 (ip), vehicle: Klucel (hydroxypropylcellulose) (HPC) 101 % of control and 121 % of control | dose: 200.0 mg/kg/injection, schedule: Q01DX001 (ip), vehicle: Klucel (hydroxypropylcellulose) (HPC) 93 % of control and 97 % of control | dose: 400.0 mg/kg/injection, schedule: Q01DX001 (ip), vehicle: Klucel (hydroxypropylcellulose) (HPC) 89 % of control
